Measurements taken from patent US20230165841A1, “PREVENTION AND INTERVENTION OF INFARCT EXPANSION FOLLOWING HEMORRHAGIC INFARCTIONS” (CEDARS-SINAI MEDICAL CENTER, priority 2020, published 2023).
Entries after “also recorded” stand apart in the source; their conditions may differ.

Tests used:
mice with reperfused MI = settings: pre-treating prior to ischemia; cited from earlier work
[1] = cited from earlier work
[2] = system: rats subjected to hMIs (90-min I/R); settings: for LVEF: echocardiography, EDTA 40 mg/kg/day oral gavage upon reperfusion, followed 4 weeks, PBS 30±4%; for Adverse LV remodeling / cardioprotection: rats with hMI, post reperfusion treatment
[3] = system: dogs with reperfused hemorrhagic MI; test: Deferiprone interventional arm in canine model of hemorrhagic MI (serial CMR); type: in vivo, dog
cardiomyocyte culture = test: Total ROS in cardiomyocyte culture treated with Hx, DFP, hemin; type: cell-based; settings: compared to controls; FIG. 16 axis μM/mg protein/min
Excerpt: FIG. 16 is a bar graph depicting the total ROS production (μM/mg protein/min) in cardiomyocyte culture treated with different agents or control, indicating the importance of physiochemical state of degradation products of hemorrhage being the therapeutic targets.
Physiochemical features of degradation products of hemorrhage are important for determining optimal therapy. An early byproduct of hemorrhage is extracellular heme (an Fe^2+ complex), which is eventually internalized by cardiomyocytes. Applicant tested whether pretreating cardiomyocytes in culture with hemopexin (Hx), a heme scavenger, can rescue the cells from oxidative stress compared to an intracellular Fe^3+ chelator deferiprone (DFP). Methods: Studies were performed in an cardiomyocyte culture. Total ROS following treatment with Hx, DFP, hemin, hemin+Hx, hemin+DFP were measured. […] Summary: Location of hemorrhagic byproducts (intra- vs. extra-cellular) and oxidation state are critical features that need to be accounted for in the development of therapies against hMI. To develop an optimal ICT strategy against hMI we will identify the physiochemical features of hemorrhagic byproducts in rats with hMI sacrificed at different time points.

post MI patients = settings: 6 months of EDTA therapy starting 6-weeks post MI; cited from earlier work
[4] = system: rats with 90-min I/R (hMI); test: Hemopexin treatment of rats with 90-min I/R (hMI); type: in vivo, rat
Excerpt: FIGS. 12A and 12B depict the therapeutic benefits of hemopexin (Hx). […] Note the ventricular dilation in rats treated with PBS (not evident Hx treated rates). Long- and shor-axis (along dotted lines) views are shown.
Background: Hemopexin (Hx), a known scavenger of heme, and a key byproduct of hemorrhage. Applicant tested whether treating rats with 90-min I/R (known to yield hMI) with Hx could reduce oxidative stress in the acute phase and improve LV remodeling in the chronic phase. Methods: Rats (n=12) underwent 90-min I/R: 50% of the animals were treated with Hx (700 μg, i.p. immediately and 2 days post reperfusion) and the rest were treated with PBS. LV function was determined with echo. Half of each group was sacrificed at 24-hrs and the rest were sacrificed at 1-month post MI. […] LVEF were: 51±4% (Hx+) vs 32±5% (control), p<0.05. Summary: Heme-specific scavenger, Hx, can attenuate the adverse effects of hMI.

[5] = DFP 100 mg/kg/day oral gavage from 3 days post reperfusion
[6] = vs EDTA-treated or placebo controls

Molecule: c1ccc(-c2ccccn2)nc1 [BPD, 2,2-bipyridl]
- Mitochondrial iron and reperfusion injury (mice with reperfused MI): could reduce

Molecule: CC(=O)N(O)CCCCCNC(=O)CCC(=O)N(O)CCCCCNC(=O)CCC(=O)N(O)CCCCCN [DFO, deferoxamine]
- Lipid solubility (note in Location column) [1]: (lipid insoluble)

Molecule: Cc1c(O)c(=O)ccn1C [DFP, Deferiprone]
- Safety of delayed treatment [2, 5]: safe
- Iron and proinflammatory markers in the scarred myocardium ([2]; IL-1β, TNF-α, MMP9, vs EDTA-treated or placebo controls): reduced
- Iron in MI zones ([2]; T2*-CMR / Prussian Blue, vs EDTA-treated or placebo controls): little to no iron; also recorded: much lower
- LVEF [2, 5]: 42±4%
- Adverse LV remodeling / cardioprotection [2]: marked reduction
- LV dilatation [2, 6]: reduced
- Wall thickness (infarcted and remote) [2, 6]: thicker
- Relative PDFF in the MI zones, change between D3 and Wk8 ([3]; DFP+/IMH+ group): did not show an increase
- LVEF ([3]; DFP+/IMH+ group by M6, p<0.03): over 40%
- Remote wall thickness, change over the 6-month period ([3]; DFP+/IMH+ group, diastolic): decreased
- Magnitude of peak circumferential strain (Peak εc) vs DFP−/IMH+ group ([3]; Wk8 to M6 and D3 to M6, p<0.05): significant greater
- Fat infiltration within the MI zones vs DFP−/IMH+ group ([3]; at M6): significantly lower
- Infarct wall thickness, treated group compared to untreated group ([3]; at M6, p<0.05): +34%
- Infarct-to-remote wall thickness (I:RWT), DFP+/IMH+ vs DFP−/IMH+ ([3]; at M6, p<0.05): +67%
- Remote wall thickness, DFP−/IMH+ group compared to DFP+/IMH+ group ([3]; at M6, untreated larger, p<0.05): +28%
- LVEF, DFP+/IMH+ group vs DFP−/IMH+ group ([3]; at Month 6, p<0.005): +36%
- Fat content based on PDFF (normalized to D3) vs untreated group ([3]; at Wk8 and M6): marked reduction
- End-systolic volume (ESV) vs DFP−/IMH+ group ([3]; at both Wk8 and Mo6, p<0.05): lower
- Fat content within MI zone vs untreated control group ([3]; at the end of the treatment period (Wk8)): decreased precipitously
- Total ROS, agent alone (cardiomyocyte culture): did not increase

Molecule: O=C(O)CN(CCN(CC(=O)O)CC(=O)O)CC(=O)O [EDTA, ethylenediaminetetraacetic acid]
- LVEF [2, 5]: 32±3%
- Adverse LV remodeling / cardioprotection [2]: did not decrease; also recorded: does not provide cardioprotection
- Stability of ferric-EDTA complex ([1]; can be transformed to ferrous-EDTA in vivo): unstable
- MACE (post MI patients): did not decrease

Molecule: hemin
- Total ROS, agent alone (cardiomyocyte culture): markedly increased

B1: hemopexin (protein, UniProt P02790 24-462, looked up)
Hemopexin: TPLPPTSAHGNVAEGETKPDPDVTERCSDGWSFDATTLDDNGTMLFFKGEFVWKSHKWDRELISERWKNFPSPVDAAFRQGHNSVFLIKGDKVWVYPPEKKEKGYPKLLQDEFPGIPSPLDAAVECHRGECQAEGVLFFQGDREWFWDLATGTMKERSWPAVGNCSSALRWLGRYYCFQGNQFLRFDPVRGEVPPRYPRDVRDYFMPCPGRGHGHRNGTGHGNSTHHGPEYMRCSPHLVLSALTSDNHGATYAFSGTHYWRLDTSRDGWHSWPIAHQWPQGPSAVDAAFSWEEKLYLVQGTQVYVFLTKGGYTLVSGYPKRLEKEVGTPHGIILDSVDAAFICPGSSRLHIMAGRRLWWLDLKSGAQATWTELPWPHEKVDGALCMEKSLGPNSCSANGPGLYLIHGPNLYCYSDVEKLNAAKALPQPQNVTSLLGCTH
notes: a known scavenger of heme
- LV remodeling ([4]; 1-month post reperfusion, vs PBS-treated group): better
- Total ROS (production within MI) ([4]; 24 hrs post reperfusion, Hx 700 μg i.p. immediately and 2 days post reperfusion, vs PBS control): significantly lower
- LVEF ([4]; echo, Hx 700 μg i.p. immediately and 2 days post reperfusion, control 32±5%, p<0.05): 51±4%
- Total ROS, agent alone (cardiomyocyte culture): did not increase
